Source: US12157741B2, “Macrocyclic inhibitors of DYRK1A” (DANA-FARBER CANCER INSTITUTE, INC., priority 2018, dated 2024)
Where two headings read alike, the source gives them in different places.

Columns and labels:
Type in all cases: binding
various enzymes [1] = target: various enzymes (Homo sapiens, UniProt Q2M2I8); details: compound 1 uM
Description: (§1) Ambit profiling was conducted in accordance with the manufacturer's instructions.

various enzymes [2] = target: various enzymes (Homo sapiens, UniProt Q86Z02); details: compound 1 uM
Description: as §1

various enzymes [3] = target: various enzymes (Homo sapiens, UniProt O00750); details: compound 1 uM
Description: as §1

various enzymes [4] = target: various enzymes (Homo sapiens, UniProt Q14164); details: compound 1 uM
Description: as §1

various enzymes [5] = target: various enzymes (Homo sapiens, UniProt P54764); details: compound 1 uM
Description: as §1

various enzymes [6] = target: various enzymes (Homo sapiens, UniProt P36888, R834Q)
Description: as §1

various enzymes [7] = target: various enzymes (Homo sapiens, UniProt Q9Y6E0); details: compound 1 uM
Description: as §1

various enzymes [8] = target: various enzymes (Homo sapiens, UniProt Q9UM73); details: compound 1 uM
Description: as §1

various enzymes [9] = target: various enzymes (Homo sapiens, UniProt O14976); details: compound 1 uM
Description: as §1

various enzymes [10] = target: various enzymes (Homo sapiens, UniProt P00519, E255K)
Description: as §1

various enzymes [11] = target: various enzymes (Homo sapiens, UniProt Q13464); details: compound 1 uM
Description: as §1

various enzymes [12] = target: various enzymes (Homo sapiens, UniProt Q9Y2I7); details: compound 1 uM
Description: as §1

various enzymes [13] = target: various enzymes (Homo sapiens, UniProt P51813); details: compound 1 uM
Sequence of various enzymes (Homo sapiens, UniProt P51813) (P51813 whole entry): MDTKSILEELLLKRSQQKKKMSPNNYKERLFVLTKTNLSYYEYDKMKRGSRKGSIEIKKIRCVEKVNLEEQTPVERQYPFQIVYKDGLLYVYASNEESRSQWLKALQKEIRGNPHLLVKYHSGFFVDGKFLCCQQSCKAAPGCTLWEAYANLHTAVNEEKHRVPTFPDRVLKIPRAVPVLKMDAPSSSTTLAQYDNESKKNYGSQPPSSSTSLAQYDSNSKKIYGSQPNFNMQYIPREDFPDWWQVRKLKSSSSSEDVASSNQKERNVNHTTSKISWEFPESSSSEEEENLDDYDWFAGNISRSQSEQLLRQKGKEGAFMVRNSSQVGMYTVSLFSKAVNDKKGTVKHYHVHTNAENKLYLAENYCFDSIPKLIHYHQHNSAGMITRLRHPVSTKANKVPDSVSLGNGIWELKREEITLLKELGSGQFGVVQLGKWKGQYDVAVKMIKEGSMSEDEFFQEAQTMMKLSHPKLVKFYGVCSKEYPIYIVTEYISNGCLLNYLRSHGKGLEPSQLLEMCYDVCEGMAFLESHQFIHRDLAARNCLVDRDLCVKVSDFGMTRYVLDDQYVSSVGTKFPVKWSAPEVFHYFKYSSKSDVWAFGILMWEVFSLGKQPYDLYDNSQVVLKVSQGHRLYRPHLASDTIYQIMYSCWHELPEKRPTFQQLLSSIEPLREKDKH
Description: as §1

various enzymes [14] = target: various enzymes (Homo sapiens, UniProt O00506); details: compound 1 uM
Description: as §1

various enzymes [15] = target: various enzymes (Homo sapiens, UniProt Q14289); details: compound 1 uM
Sequence of various enzymes (Homo sapiens, UniProt Q14289) (Q14289 whole entry): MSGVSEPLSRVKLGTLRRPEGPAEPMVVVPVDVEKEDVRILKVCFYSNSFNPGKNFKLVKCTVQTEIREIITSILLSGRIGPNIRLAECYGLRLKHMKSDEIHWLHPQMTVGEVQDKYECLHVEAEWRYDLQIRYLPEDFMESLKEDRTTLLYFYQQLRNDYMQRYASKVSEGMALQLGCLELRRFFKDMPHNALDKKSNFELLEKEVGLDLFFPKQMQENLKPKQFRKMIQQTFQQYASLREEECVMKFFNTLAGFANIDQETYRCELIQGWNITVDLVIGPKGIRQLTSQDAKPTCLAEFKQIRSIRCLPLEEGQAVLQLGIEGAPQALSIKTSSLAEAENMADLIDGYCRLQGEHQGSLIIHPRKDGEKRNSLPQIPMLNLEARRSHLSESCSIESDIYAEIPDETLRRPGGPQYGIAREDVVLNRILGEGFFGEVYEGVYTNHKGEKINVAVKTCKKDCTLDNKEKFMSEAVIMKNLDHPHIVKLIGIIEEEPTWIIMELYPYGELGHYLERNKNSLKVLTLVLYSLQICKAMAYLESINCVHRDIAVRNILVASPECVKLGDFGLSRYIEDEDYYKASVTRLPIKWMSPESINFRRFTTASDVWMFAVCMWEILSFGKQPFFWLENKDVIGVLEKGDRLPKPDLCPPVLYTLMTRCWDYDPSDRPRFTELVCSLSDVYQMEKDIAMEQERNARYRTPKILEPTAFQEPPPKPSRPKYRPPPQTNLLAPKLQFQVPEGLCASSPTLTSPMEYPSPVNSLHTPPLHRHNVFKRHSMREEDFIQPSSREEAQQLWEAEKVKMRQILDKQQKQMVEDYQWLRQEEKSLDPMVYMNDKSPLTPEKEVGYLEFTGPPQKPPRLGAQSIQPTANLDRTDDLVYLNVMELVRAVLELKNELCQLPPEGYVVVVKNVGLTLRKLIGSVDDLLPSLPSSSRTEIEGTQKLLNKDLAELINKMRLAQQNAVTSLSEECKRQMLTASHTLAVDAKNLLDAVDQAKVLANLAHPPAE
Description: as §1

various enzymes [16] = target: various enzymes (Homo sapiens, UniProt Q13233); details: compound 1 uM
Description: as §1

various enzymes [17] = target: various enzymes (Homo sapiens, UniProt Q9UHD2); details: compound 1 uM
Description: as §1

various enzymes [18] = target: various enzymes (Homo sapiens, UniProt Q04771); details: compound 1 uM
Sequence of various enzymes (Homo sapiens, UniProt Q04771) (Q04771 21-509): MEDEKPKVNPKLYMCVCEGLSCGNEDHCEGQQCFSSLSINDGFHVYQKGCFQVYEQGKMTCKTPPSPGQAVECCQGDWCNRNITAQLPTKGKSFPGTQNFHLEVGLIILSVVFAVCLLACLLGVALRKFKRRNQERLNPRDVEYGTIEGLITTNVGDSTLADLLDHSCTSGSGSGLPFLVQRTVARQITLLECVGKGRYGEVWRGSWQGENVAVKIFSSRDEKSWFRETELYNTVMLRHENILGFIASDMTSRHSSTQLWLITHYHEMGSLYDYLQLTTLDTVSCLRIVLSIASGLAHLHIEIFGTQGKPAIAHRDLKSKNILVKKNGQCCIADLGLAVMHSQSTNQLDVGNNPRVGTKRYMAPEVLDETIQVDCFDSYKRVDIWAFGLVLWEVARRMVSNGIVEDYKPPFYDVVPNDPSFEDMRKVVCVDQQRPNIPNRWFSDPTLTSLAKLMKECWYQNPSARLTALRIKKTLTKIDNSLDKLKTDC
Description: as §1

various enzymes [19] = target: various enzymes (Homo sapiens, UniProt P31751); details: compound 1 uM
Description: as §1

various enzymes [20] = target: various enzymes (Homo sapiens, UniProt P06213); details: compound 1 uM
Description: as §1

various enzymes [21] = target: various enzymes (Homo sapiens, UniProt Q16584); details: compound 1 uM
Description: as §1

various enzymes [22] = target: various enzymes (Homo sapiens, UniProt Q06418); details: compound 1 uM
Sequence of various enzymes (Homo sapiens, UniProt Q06418) (Q06418 41-890): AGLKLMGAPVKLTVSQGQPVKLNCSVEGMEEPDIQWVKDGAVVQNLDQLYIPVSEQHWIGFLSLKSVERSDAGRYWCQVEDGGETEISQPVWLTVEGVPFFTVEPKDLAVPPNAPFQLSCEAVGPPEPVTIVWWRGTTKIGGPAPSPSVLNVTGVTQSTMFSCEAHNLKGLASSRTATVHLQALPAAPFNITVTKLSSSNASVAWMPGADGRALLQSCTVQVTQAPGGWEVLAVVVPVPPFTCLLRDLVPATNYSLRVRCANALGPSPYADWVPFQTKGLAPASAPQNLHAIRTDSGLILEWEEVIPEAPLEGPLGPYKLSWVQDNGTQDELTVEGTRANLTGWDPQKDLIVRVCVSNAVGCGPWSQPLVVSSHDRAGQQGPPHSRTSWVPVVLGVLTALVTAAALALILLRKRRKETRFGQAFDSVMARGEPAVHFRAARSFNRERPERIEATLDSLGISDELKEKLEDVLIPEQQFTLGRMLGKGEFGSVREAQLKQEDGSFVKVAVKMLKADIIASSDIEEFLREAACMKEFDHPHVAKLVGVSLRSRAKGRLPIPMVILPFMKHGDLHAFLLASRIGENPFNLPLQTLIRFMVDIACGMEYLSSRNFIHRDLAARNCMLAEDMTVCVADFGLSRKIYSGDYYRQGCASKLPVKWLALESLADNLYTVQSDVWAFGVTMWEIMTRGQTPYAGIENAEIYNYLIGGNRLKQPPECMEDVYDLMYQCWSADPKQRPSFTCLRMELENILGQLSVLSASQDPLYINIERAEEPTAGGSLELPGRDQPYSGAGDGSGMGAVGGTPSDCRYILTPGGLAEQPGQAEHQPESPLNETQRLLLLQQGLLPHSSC
Description: as §1

various enzymes [23] = target: various enzymes (Homo sapiens, UniProt Q9UEW8); details: compound 1 uM
Description: as §1

various enzymes [24] = target: various enzymes (Homo sapiens, UniProt P30291); details: compound 1 uM
Sequence of various enzymes (Homo sapiens, UniProt P30291) (P30291 whole entry): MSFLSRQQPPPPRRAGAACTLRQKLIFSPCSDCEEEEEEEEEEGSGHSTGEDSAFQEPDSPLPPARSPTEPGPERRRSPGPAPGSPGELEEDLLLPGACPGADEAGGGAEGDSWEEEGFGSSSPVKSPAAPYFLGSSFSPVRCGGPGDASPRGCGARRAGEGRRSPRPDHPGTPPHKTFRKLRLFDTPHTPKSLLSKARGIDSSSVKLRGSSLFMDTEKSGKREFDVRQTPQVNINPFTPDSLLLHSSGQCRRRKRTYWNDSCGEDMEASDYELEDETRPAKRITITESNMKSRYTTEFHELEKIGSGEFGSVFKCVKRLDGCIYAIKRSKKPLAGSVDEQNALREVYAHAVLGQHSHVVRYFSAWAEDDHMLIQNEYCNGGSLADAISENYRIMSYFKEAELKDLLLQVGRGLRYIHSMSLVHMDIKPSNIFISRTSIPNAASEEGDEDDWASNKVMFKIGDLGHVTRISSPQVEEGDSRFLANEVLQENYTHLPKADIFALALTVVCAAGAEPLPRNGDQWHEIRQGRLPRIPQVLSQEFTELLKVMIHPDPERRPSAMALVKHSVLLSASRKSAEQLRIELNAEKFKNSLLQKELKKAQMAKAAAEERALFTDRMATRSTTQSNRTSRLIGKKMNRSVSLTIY
Description: as §1

various enzymes [25] = target: various enzymes (Homo sapiens, UniProt Q9UBE8); details: compound 1 uM
Description: as §1

various enzymes [26] = target: various enzymes (Homo sapiens, UniProt O15197); details: compound 1 uM
Description: as §1

various enzymes [27] = target: various enzymes (Homo sapiens, UniProt Q15349); details: compound 1 uM
Sequence of various enzymes (Homo sapiens, UniProt Q15349) (Q15349 whole entry): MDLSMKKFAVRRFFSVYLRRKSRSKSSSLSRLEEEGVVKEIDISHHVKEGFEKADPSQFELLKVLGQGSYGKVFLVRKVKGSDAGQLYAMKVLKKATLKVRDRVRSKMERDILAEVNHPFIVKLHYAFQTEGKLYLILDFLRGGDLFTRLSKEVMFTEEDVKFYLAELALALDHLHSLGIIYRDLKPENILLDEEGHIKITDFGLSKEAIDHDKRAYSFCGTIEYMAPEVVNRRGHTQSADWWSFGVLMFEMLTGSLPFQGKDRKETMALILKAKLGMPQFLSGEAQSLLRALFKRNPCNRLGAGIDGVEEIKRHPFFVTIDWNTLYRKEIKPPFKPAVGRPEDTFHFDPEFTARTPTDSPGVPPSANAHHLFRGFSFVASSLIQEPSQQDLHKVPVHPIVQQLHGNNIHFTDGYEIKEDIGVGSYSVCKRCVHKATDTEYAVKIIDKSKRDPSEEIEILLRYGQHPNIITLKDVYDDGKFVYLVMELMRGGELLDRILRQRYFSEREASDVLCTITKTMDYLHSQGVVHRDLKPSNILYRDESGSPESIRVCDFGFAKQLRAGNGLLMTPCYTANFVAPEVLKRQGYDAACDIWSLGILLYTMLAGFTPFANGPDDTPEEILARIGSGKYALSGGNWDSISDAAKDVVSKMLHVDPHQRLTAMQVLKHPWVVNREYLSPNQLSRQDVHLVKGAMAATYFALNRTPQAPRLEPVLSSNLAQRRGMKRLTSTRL
Description: as §1

various enzymes [28] = target: various enzymes (Homo sapiens, UniProt Q13555); details: compound 1 uM
Sequence of various enzymes (Homo sapiens, UniProt Q13555) (Q13555 whole entry): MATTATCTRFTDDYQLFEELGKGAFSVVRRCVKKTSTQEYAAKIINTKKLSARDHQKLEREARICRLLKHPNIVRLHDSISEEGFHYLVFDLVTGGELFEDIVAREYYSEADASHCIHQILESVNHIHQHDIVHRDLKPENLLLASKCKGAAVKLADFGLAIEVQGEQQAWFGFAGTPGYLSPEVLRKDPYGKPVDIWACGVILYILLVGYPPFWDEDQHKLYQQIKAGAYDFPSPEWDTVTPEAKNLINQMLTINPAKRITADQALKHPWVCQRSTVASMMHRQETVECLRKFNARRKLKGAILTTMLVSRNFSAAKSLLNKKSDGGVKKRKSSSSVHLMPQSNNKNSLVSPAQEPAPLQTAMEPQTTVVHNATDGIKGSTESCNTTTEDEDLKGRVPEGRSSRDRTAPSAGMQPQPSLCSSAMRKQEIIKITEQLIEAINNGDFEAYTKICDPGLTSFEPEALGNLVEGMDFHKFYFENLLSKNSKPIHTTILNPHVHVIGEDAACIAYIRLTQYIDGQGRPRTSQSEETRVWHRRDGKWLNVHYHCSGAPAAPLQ
Description: as §1

various enzymes [29] = target: various enzymes (Homo sapiens, UniProt Q9HBH9); details: compound 1 uM
Description: as §1

various enzymes [30] = target: various enzymes (Homo sapiens, UniProt P00533, G719S)
Description: as §1

various enzymes [31] = target: various enzymes (Homo sapiens, UniProt Q9Y4K4); details: compound 1 uM
Description: as §1

various enzymes [32] = target: T1, various enzymes (Homo sapiens, UniProt O14733); details: compound 1 uM
T1 sequence (O14733 1-419): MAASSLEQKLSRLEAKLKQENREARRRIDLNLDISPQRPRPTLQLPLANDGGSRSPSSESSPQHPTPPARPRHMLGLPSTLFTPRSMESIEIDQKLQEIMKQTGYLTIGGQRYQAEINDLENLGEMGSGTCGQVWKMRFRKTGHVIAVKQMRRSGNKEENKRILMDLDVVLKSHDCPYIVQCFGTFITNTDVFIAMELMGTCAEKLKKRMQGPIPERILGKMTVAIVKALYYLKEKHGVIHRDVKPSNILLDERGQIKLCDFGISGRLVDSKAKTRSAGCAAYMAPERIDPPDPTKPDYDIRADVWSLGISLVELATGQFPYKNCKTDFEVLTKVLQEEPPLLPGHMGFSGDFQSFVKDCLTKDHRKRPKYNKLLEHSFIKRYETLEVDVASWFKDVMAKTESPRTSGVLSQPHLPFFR
Description: as §1

various enzymes [33] = target: various enzymes (Homo sapiens, UniProt P35590); details: compound 1 uM
Description: as §1

various enzymes [34] = target: various enzymes (Homo sapiens, UniProt P31152); details: compound 1 uM
Description: as §1

various enzymes [35] = target: various enzymes (Homo sapiens, UniProt Q8WXR4); details: compound 1 uM
Description: as §1

various enzymes [36] = target: various enzymes (Homo sapiens, UniProt Q13705); details: compound 1 uM
Description: as §1

various enzymes [37] = target: various enzymes (Homo sapiens, UniProt Q9H4B4); details: compound 1 uM
Description: as §1

various enzymes [38] = target: various enzymes (Homo sapiens, UniProt P22455); details: compound 1 uM
Description: as §1

Structure (SMILES)	Ambit profiling: AAK1 (various enzymes [1])	Ambit profiling: HIPK1 (various enzymes [2])	Ambit profiling: PIK3C2B (various enzymes [3])	Ambit profiling: IKK-epsilon (various enzymes [4])	Ambit profiling: EPHA4 (various enzymes [5])	Ambit profiling: MST3 (various enzymes [7])	Ambit profiling: ALK (various enzymes [8])	Ambit profiling: GAK (various enzymes [9])	Ambit profiling: ROCK1 (various enzymes [11])	Ambit profiling: PIKFYVE (various enzymes [12])	Ambit profiling: BMX (various enzymes [13])	Ambit profiling: YSK1 (various enzymes [14])	Ambit profiling: PYK2 (various enzymes [15])	Ambit profiling: MAP3K1 (various enzymes [16])	Ambit profiling: TBK1 (various enzymes [17])	Ambit profiling: ACVR1 (various enzymes [18])	Ambit profiling: AKT2 (various enzymes [19])	Ambit profiling: INSR (various enzymes [20])	Ambit profiling: MLK3 (various enzymes [21])	Ambit profiling: TYRO3 (various enzymes [22])	other results
CC(C)N1Cc2nn(C)cc2-c2cnc3[nH]cc(c3c2)-c2cn(nc2C(F)(F)F)CCCC1=O [Compound 45, (Z)-5-isopropyl-31-methyl-13-(trifluoromethyl)-11H,21H,31H-5-aza-2(3,5)-pyrrolo[2,3-b]pyridina-1(4,1),3(4,3)-dipyrazolacyclononaphan-6-one]	40	6.5	92	40	88	57	18	5.7	95	13	35	38	30	95	0	18	100	43	28	87	Ambit profiling: FLT3(R834Q) (various enzymes [6]; compound 1 uM): 8.7; Ambit profiling: ABL1(E255K)-phosphorylated (various enzymes [10]; compound 1 uM): 7.7; Ambit profiling: STK39 (various enzymes [23]): 98; Ambit profiling: WEE1 (various enzymes [24]): 73; Ambit profiling: NLK (various enzymes [25]): 84; Ambit profiling: EPHB6 (various enzymes [26]): 4.8; Ambit profiling: RSK3(Kin.Dom.1-N-terminal) (various enzymes [27]): 4.7; Ambit profiling: RSK3(Kin.Dom.2-C-terminal) (various enzymes [27]): 96; Ambit profiling: CAMK2G (various enzymes [28]): 24; Ambit profiling: MKNK2 (various enzymes [29]): 100; Ambit profiling: EGFR(G719S) (various enzymes [30]; compound 1 uM): 41; Ambit profiling: MAP4K5 (various enzymes [31]): 1.2; Ambit profiling: MKK7 (various enzymes [32]): 76; Ambit profiling: TIE1 (various enzymes [33]): 7.2; Ambit profiling: ERK4 (various enzymes [34]): 100; Ambit profiling: MYO3B (various enzymes [35]): 6.7; Ambit profiling: ACVR2B (various enzymes [36]): 79; Ambit profiling: PLK3 (various enzymes [37]): 95; Ambit profiling: FGFR4 (various enzymes [38]): 85
COc1c2c(nn1C)CN(C(C)C)C(=O)CCCn1cc(c(C(F)(F)F)n1)-c1c[nH]c3ncc-2cc13 [Compound 50, (Z)-5-isopropyl-35-methoxy-31-methyl-13-(trifluoromethyl)-11H,21H,31H-5-aza-2(3,5)-pyrrolo[2,3-b]pyridina-1(4,1),3(4,3)-dipyrazolacyclononaphan-6-one]	43	13	100	19	63	63	21	4	79	11	24	25	19	72	3.8	14	86	22	11	99	Ambit profiling: FLT3(R834Q) (various enzymes [6]): 0; Ambit profiling: ABL1(E255K)-phosphorylated (various enzymes [10]): 2; Ambit profiling: STK39 (various enzymes [23]): 100; Ambit profiling: WEE1 (various enzymes [24]): 38; Ambit profiling: NLK (various enzymes [25]): 84; Ambit profiling: EPH86 (various enzymes [26]): 0.7; Ambit profiling: RSK3(Kin.Dom.1-N-terminal) (various enzymes [27]): 4; Ambit profiling: RSK3(Kin.Dom.2-C-terminal) (various enzymes [27]): 80; Ambit profiling: CAMK2G (various enzymes [28]): 31; Ambit profiling: MKNK2 (various enzymes [29]): 53; Ambit profiling: EGFR(G719S) (various enzymes [30]): 41; Ambit profiling: MAP4K5 (various enzymes [31]): 4.1; Ambit profiling: MKK7 (various enzymes [32]): 80; Ambit profiling: TIE1 (various enzymes [33]): 9.2; Ambit profiling: ERK4 (various enzymes [34]): 82; Ambit profiling: MYO3B (various enzymes [35]): 9; Ambit profiling: ACVR2B (various enzymes [36]): 92; Ambit profiling: PLK3 (various enzymes [37]): 77; Ambit profiling: FGFR4 (various enzymes [38]): 79
